Measurements published in patent US9410152B2, “Use of microrna molecules to influence skin pigmentation” (CHANEL PARFUMS BEAUTE, priority 2011, dated 2016).

Tested on: MNT-1 cells
Assay: Measurement of the relative melanin concentration (absorbance at 470 nm of protein lysates)
Type: cell-based, human
Details: Homo sapiens, 288 h, 3.5 mM, 12 days, read-out: percentage inhibition (depigmentation positive control)
Protocol: 4×10^5 MNT-1 cells were seeded per well in a 6-well plate (#353046, Falcon) on day-1. On day 0, the cells were transfected with 50 nM of mimetic of the miRNAs (hsa-mir-137 # C-300604-07-005, hsa-mir-7 # C-300547-05-0005, hsa-mir-330-5p # C-301082-01-0005, negative control # NC-002000-01-05, Dharmacon), using 5 μL of Lipofectamine 2000 (#1668-019, Invitrogen). On day 1, the medium was changed. On day 3, the cells were trypsinized and seeded at 4×10^5 cells per well. On day 4, the cells were transfected again with 50 nM of mimetic of the miRNAs (see day 0). On day 5, the medium was changed. On day 7, the cells were trypsinized and seeded at 4×10^5 cells per well. On day 8, the cells were transfected with 50 nM of mimetic of the miRNAs (see day 0). On day 9, the medium was changed. On day 10, the cells were trypsinized and divided into two (from one by six wells to two by six wells). On day 12, one six-well plate was used for lysis of the RNA and the other for lysis of the proteins. As positive control of depigmentation, MNT-1 cells were incubated with 3.5 mM of kojic acid (Sigma K3125-5G) for 12 days. The cells were distributed as described and the kojic acid was renewed with the medium every 4 days. The percentage inhibition of the kojic acid is of the order of 10%.
On day 12, the cells were washed in PBS twice and lysed in 75 μL/well of a 6-well dish of lysis buffer for the RIPA proteins. The protein lysates were transferred to 1.5-ml Eppendorf tubes and vortexed lightly to homogenize the solution before putting the tube on ice or for storage at −80° C. 2 μL of protein lysate was used for measuring the absorbance of the melanin at 470 nm using the NanoVue spectrophotometer (GE Healthcare). The protein lysate of the unpigmented XB2 keratinocytes was used as calibrator sample (reference=0). To detect the relative quantity of melanin, all the samples were compared with the transfection control sample (miCtrl). The absorbance at 470 nm of the sample miCtrl was fixed at 1 as reference. In addition, the melanin absorption at 470 nm was normalized taking into account the concentration of proteins of each sample relative to miCtrl.

`O=c1cc(CO)occ1O` [kojic acid, reference compound] gave an inhibition at 3500 µM of ~10%.
